# Measured values reported in paper PMC5566973 (Frontiers in Pharmacology, 2017).
# Assays:
# MRP2 = test: in vitro; conditions: human, Caco-2, PappAB
# Method: (§1) Caco-2, MDCK and MDCK-MRP2 cells were donated by Prof. Yan Xie and Yueming Ma from Shanghai University of Traditional Chinese Medicine. The cells were grown in culture dishes (Corning® Costar, Cambridge, MA, USA) using DMEM supplemented with 10% FBS, 1% NEAA and 1% penicillin-streptomycin solution. The cells were cultured in 5% CO2 and […] with 90% relative humidity at 37°C. The medium was replaced every other day during incubation. The cells were passaged every 3–4 days between 70 and 80% confluence at a 1:5 split ratio using 0.25% trypsin-EDTA. For the transport experiments, the cells from passages between 30 and 45 were seeded at 1 × 10^5 cells/cm^2 onto permeable polycarbonate inserts (0.45 μm pore size, seeding surface of 0.6 cm^2, Millipore, MA, USA) in 24-well plastic plates. The media in the culture plates were changed every other day for the first week after seeding and were replaced daily afterward. […] The cells were used for the transport experiments 21–28 (Caco-2) or 5–7 (MDCK and MDCK-MRP2) days after seeding, and only monolayers with a TEER-value above 420 Ω cm^2 were used during the studies.
# (§2) The apical (AP) and basolateral (BL) sides are typical of polarized Caco-2, MDCK and MDCK-MRP2 epithelial cells. Before the experiments, the polarized cell monolayers were washed twice with warm HBSS solution and subsequently preincubated (37°C, 30 min). Afterward, HBSS solution on both sides of the cell monolayers was removed using a mini desktop vacuum pump. […] The final DMSO concentration in the HBSS or drug mixture was below 0.5%. The monolayers were incubated at 37°C, and 100 μL samples were taken at 30, 60, 90, and 120 min from the acceptor compartment and immediately replaced with the same volume of prewarmed fresh blank HBSS. TEER measurements for assessing the membrane integrity took place before and after the experiments.
# (§3) The apparent permeability coefficients (Papp) and ER were calculated as Equations (2) and (3): […]
# (§4) where dQ/dt is the steady-state flux, A is the membrane surface area, and C0 is the initial drug concentration in the donor compartment. PappBA is the Papp-value measured in BL to AP direction and PappAB is the Papp-value measured in AP to BL direction. It indicated the involvement of an active transport process when the ER-value is above 1.5 (Hubatsch et al., [2007]).
# PEPT1 = test: in vitro; conditions: human, Caco-2, PappAB
# Method: as §1, §2, §3, §4
# in vitro = test: in vitro
# Method: as §1, §2, §3, §4
# MDCK cell monolayers = test: in vitro
# Method: as §1, §2, §3, §4
# OATPs = test: in vitro; conditions: human, Caco-2, PappAB
# Method: as §1, §2, §3, §4
# BCRP = test: in vitro; conditions: human, Caco-2, PappAB
# Method: as §1, §2, §3, §4
# Caco-2 cell monolayers = test: in vitro
# Method: as §1, §2, §3, §4
# OATs = test: in vitro; conditions: human, Caco-2, PappBA, Caco-2, 2 μM, + Cimetidine 0.05 mM (OATs)
# Method: as §1, §2, §3, §4
# [1] = parameters: method as in Zhang, 2013; Shi et al., 2014; conditions: dogs, oral total alkaloid extracts from P. harmala 140 mg/kg; ref Zhang, 2013; Shi et al., 2014; cited from earlier work
# [2] = Caco-2, 2 μM, + Apigenin 0.025 mM (BCRP)
# [3] = Caco-2, 2 μM, + ES 0.05 mM (OATPs)
# [4] = Caco-2, 2 μM, + Gly-Sar 10 mM (PEPT1)
# [5] = Caco-2, 2 μM, + Ko143 0.01 mM (BCRP)
# [6] = Caco-2, 2 μM, + MK571 0.05 mM (MRP2)
# [7] = Caco-2, 2 μM, + NaN3 10 mM (ATP)
# [8] = Caco-2, 2 μM, + Phloretin 0.3 mM (MCTs)
# [9] = Caco-2, 2 μM, + Phloridzin 0.5 mM (SGLT1)
# [10] = Caco-2, 2 μM, + Probenecid 0.2 mM (MRP2)
# [11] = Caco-2, 2 μM, + TEA 5 mM (OCTs/OCTNs)
# [12] = Caco-2, 2 μM, Control (no inhibitor or substrate)
structure (smiles),measurement,setting,value
COc1ccc2c(c1)[nH]c1c(C)nccc12 [Harmine],Papp A→B,MRP2,29.9 ± 2.14 ×10⁻⁶ cm/s
same,Papp A→B,PEPT1,18.3 ± 1.28 ×10⁻⁶ cm/s
same,Papp A→B,"in vitro; dog, MDCK, PappAB, initial concentration 1 μM",3.7 ± 0.14 ×10⁻⁶ cm/s
same,Papp A→B,"in vitro; dog, MDCK, PappAB, initial concentration 2 μM",4.6 ± 0.25 ×10⁻⁶ cm/s
same,Papp A→B,"in vitro; dog, MDCK, PappAB, initial concentration 5 μM",7.11 ± 0.89 ×10⁻⁶ cm/s
same,Papp B→A,"in vitro; dog, MDCK, PappBA, initial concentration 1 μM",5.81 ± 0.19 ×10⁻⁶ cm/s
same,Papp B→A,"in vitro; dog, MDCK, PappBA, initial concentration 2 μM",7.32 ± 0.19 ×10⁻⁶ cm/s
same,Papp B→A,"in vitro; dog, MDCK, PappBA, initial concentration 5 μM",11.6 ± 0.15 ×10⁻⁶ cm/s
same,Papp A→B,"in vitro; dog, MDCK, pH 5.5, PappAB, 2 μM, pH 5.5",2.24 ± 0.29 ×10⁻⁶ cm/s
same,Papp B→A,"in vitro; dog, MDCK, pH 5.5, PappBA, 2 μM, pH 5.5",3.42 ± 0.48 ×10⁻⁶ cm/s
same,Papp A→B,"in vitro; human, Caco-2, PappAB, Caco-2, 2 μM, 4°C",1.58 ± 0.57 ×10⁻⁶ cm/s
same,Papp A→B,"in vitro; human, Caco-2, PappAB, Caco-2, initial concentration 1 μM",15.1 ± 0.73 ×10⁻⁶ cm/s
same,Papp A→B,"in vitro; human, Caco-2, PappAB, Caco-2, initial concentration 2 μM",18.8 ± 1.26 ×10⁻⁶ cm/s
same,Papp A→B,"in vitro; human, Caco-2, PappAB, Caco-2, initial concentration 5 μM",31.1 ± 1.42 ×10⁻⁶ cm/s
same,Papp B→A,"in vitro; human, Caco-2, PappBA, Caco-2, 2 μM, 4°C",2.41 ± 0.85 ×10⁻⁶ cm/s
same,Papp B→A,"in vitro; human, Caco-2, PappBA, Caco-2, initial concentration 1 μM",22.8 ± 0.25 ×10⁻⁶ cm/s
same,Papp B→A,"in vitro; human, Caco-2, PappBA, Caco-2, initial concentration 2 μM",29.3 ± 1.21 ×10⁻⁶ cm/s
same,Papp B→A,"in vitro; human, Caco-2, PappBA, Caco-2, initial concentration 5 μM",48.3 ± 2.81 ×10⁻⁶ cm/s
same,Papp A→B,"in vitro; human, Caco-2, pH 5.5, PappAB, Caco-2, 2 μM, pH 5.5",5.27 ± 0.29 ×10⁻⁶ cm/s
same,Papp B→A,"in vitro; human, Caco-2, pH 5.5, PappBA, Caco-2, 2 μM, pH 5.5",4.17 ± 1.03 ×10⁻⁶ cm/s
same,PappAB,"MDCK cell monolayers; 2 μM, 4°C",1.85 ± 0.55^*** 1 × 10^−6 cm/s
same,PappAB,"MDCK cell monolayers; 2 μM, Control (pH 7.4, 37°C, without EDTA)",4.60 ± 0.25 1 × 10^−6 cm/s
same,PappAB,"MDCK cell monolayers; 2 μM, with EDTA 5 mM",7.47 ± 1.31^* 1 × 10^−6 cm/s
same,PappBA,"MDCK cell monolayers; 2 μM, with EDTA 5 mM",8.98 ± 0.90 1 × 10^−6 cm/s
same,PappAB,"MDCK cell monolayers; 2 μM, with EDTA 5 mM, listed as harmine",7.47 ± 1.31 1 × 10^−6 cm/s
same,PappBA,"MDCK cell monolayers; dog, pH 7.4",7.32 ± 0.19 1 × 10^−6 cm/s
same,Papp A→B,OATPs,14.6 ± 1.31 ×10⁻⁶ cm/s
same,Papp A→B,BCRP,19 ± 3.67 ×10⁻⁶ cm/s
same,PappAB,"Caco-2 cell monolayers; Caco-2, 2 μM, 4°C",1.58 ± 0.57 1 × 10^−6 cm/s
same,Modulatory effect,Caco-2 cell monolayers; [2],−
same,PappBA,Caco-2 cell monolayers; [2],28.40 ± 4.27 1 × 10^−6 cm/s
same,Modulatory effect,"Caco-2 cell monolayers; Caco-2, 2 μM, + Cimetidine 0.05 mM (OATs)",−
same,Modulatory effect,Caco-2 cell monolayers; [3],+
same,PappAB,Caco-2 cell monolayers; [3],14.64 ± 1.31 1 × 10^−6 cm/s
same,PappBA,Caco-2 cell monolayers; [3],28.43 ± 1.89 1 × 10^−6 cm/s
same,Modulatory effect,Caco-2 cell monolayers; [4],−
same,PappBA,Caco-2 cell monolayers; [4],27.86 ± 1.96 1 × 10^−6 cm/s
same,Modulatory effect,Caco-2 cell monolayers; [5],−
same,PappBA,Caco-2 cell monolayers; [5],27.96 ± 3.86 1 × 10^−6 cm/s
same,Modulatory effect,Caco-2 cell monolayers; [6],+
same,PappBA,Caco-2 cell monolayers; [6],29.36 ± 2.73 1 × 10^−6 cm/s
same,Modulatory effect,Caco-2 cell monolayers; [7],+
same,PappBA,Caco-2 cell monolayers; [7],27.94 ± 1.76 1 × 10^−6 cm/s
same,Modulatory effect,Caco-2 cell monolayers; [8],−
same,PappBA,Caco-2 cell monolayers; [8],27.37 ± 2.13 1 × 10^−6 cm/s
same,Modulatory effect,Caco-2 cell monolayers; [9],−
same,PappBA,Caco-2 cell monolayers; [9],29.39 ± 1.30 1 × 10^−6 cm/s
same,Modulatory effect,Caco-2 cell monolayers; [10],+
same,PappBA,Caco-2 cell monolayers; [10],27.93 ± 2.33 1 × 10^−6 cm/s
same,Modulatory effect,"Caco-2 cell monolayers; Caco-2, 2 μM, + Quinidine 0.1 mM (MDR1)",−
same,Modulatory effect,"Caco-2 cell monolayers; Caco-2, 2 μM, + Sodium vanadate 0.05 mM (Na^+)",+
same,Modulatory effect,Caco-2 cell monolayers; [11],+
same,PappBA,Caco-2 cell monolayers; [11],28.05 ± 1.20 1 × 10^−6 cm/s
same,Modulatory effect,"Caco-2 cell monolayers; Caco-2, 2 μM, + Verapamil 0.1 mM (MDR1)",−
same,PappAB,Caco-2 cell monolayers; [12],18.52 ± 2.06 1 × 10^−6 cm/s
same,PappBA,Caco-2 cell monolayers; [12],29.40 ± 1.38 1 × 10^−6 cm/s
same,PappBA,"Caco-2 cell monolayers; Caco-2, 2 μM, Control (pH 7.4, 37°C, without EDTA)",29.34 ± 1.21 1 × 10^−6 cm/s
same,PappBA,"Caco-2 cell monolayers; Caco-2, 2 μM, with EDTA 5 mM",29.67 ± 2.22 1 × 10^−6 cm/s
same,increase of PappAB,"Caco-2 cell monolayers; Caco-2, + MK571 vs control",1.62 folds
same,increase of PappAB,"Caco-2 cell monolayers; Caco-2, + probenecid vs control",1.27 folds
same,ER-values at the tested concentrations,"Caco-2 cell monolayers; Caco-2 and MDCK, 1, 2, and 5 μM",> 1.5
same,PappAB,"Caco-2 cell monolayers; human, Caco-2",24.11 ± 2.53^* 1 × 10^−6 cm/s
same,PappAB,"Caco-2 cell monolayers; human, Caco-2, pH 7.4",18.78 ± 1.26 1 × 10^−6 cm/s
same,Papp B→A,OATs,27.6 ± 1.54 ×10⁻⁶ cm/s
same,F-value (absolute bioavailability),[1],5.33%
